Results taken from patent US20120156670A1, “IN VITRO […]-CULTURE MODELS” (ARIZONA STATE UNIVERSITY, priority 2010, published 2012).

Legend:
[1] = tested on: dendritic cells in endocervical model co-culture; test: MIMIC co-culture of primed endocervical epithelial microcarriers with PTE module: dendritic cell recovery; assay type: cell-based, human; settings: FIG. 2
Excerpt: (§1) Our experimental design of the MIMIC® co-culture of RWV bioreactor-grown epithelial tissue from selected female reproductive tract tested the efficacy of the differentiated epithelia to pick up and present antigen (FIG. 1). RWV-cultured female reproductive microcarriers of differentiated vaginal and endocervical mucosa were exposed to microbicide/spermicide and bacterial antigen and then introduced to the APC-containing PTE module to study the innate immune responses to Nonoxynol-9 and E. coli bioparticulate treatments.
(§2) Approximately 3.5-week cultured vaginal tissue aggregates and endocervical tissue aggregates were used to mimic the local mucosal tissue of the female reproductive vaginal and endocervical regions. Cell-bearing microcarrier beads were prepared as follows. Collagen-coated Cytodex beads (Sigma) composed of dextran and having an average size of ˜60-87 microns were prepared for cell attachment by soaking in sterile PBS overnight and autoclaved. […]
(§3) Specifically, for the differentiated reproductive epithelial microcarrier co-cultures used here, we generated PTE modules over a period of 2 weeks as follows (see FIG. 1). […] Cell layer integrity and viability were assessed by phase contrast microscopy and/or trypan blue exclusion staining. […]

[2] = tested on: endocervical model co-culture; test: Bioplex cytokine production in co-culture supernatants, endocervical model; assay type: cell-based, human; settings: FIG. 4
Procedure: Vaginal- and endocervix-cell bearing microcarriers were collected, washed, and re-suspended in 30 mL of KSFM complete medium (Invitrogen, with EGF and BPE), CaCl, and Primocin (InvivoGen). They were then placed on a shaker in polystyrene bottles with vented caps in an incubator (5% CO2, 37° C.) to mimic the circular agitation of the RWV bioreactor. The two types of cell-bearing microcarriers were primed using E. coli as the antigen to mimic an in vivo infection of the female reproductive mucosa through the following steps after a day of culture in the incubator. The E. coli was heat-inactivated and the resulting bioparticles were added at a concentration of 1×10^6/mL to the shaker bottles. E. coli bioparticles alone and no-treatment conditions served as positive and baseline controls, respectively.
The effect of the microbicide nonoxynol-9 (N-9) on antigen priming was studied in experiments by mimicking in vivo microbicidal exposure through the use of Conceptrol®, leading to tissue damage, followed by bacterial infection. Over-the-counter, N-9-containing Conceptrol® was diluted to 20 μg/mL. The concentration of Conceptrol® was chosen to limit massive cell death due to presence of N-9 and reported findings of weakened membrane integrity in the presence of this surfactant microbicide (Dayal, 2003). […]

vaginal epithelial cells = settings: background statement; cited from earlier work
[3] = tested on: dendritic cells in vaginal model co-culture; test: MIMIC co-culture of primed vaginal epithelial microcarriers with PTE module: dendritic cell recovery; assay type: cell-based, human; settings: FIG. 2
Excerpt: as §1, §2, §3

[4] = tested on: PTE antigen-presenting cells; test: Total immune cell recovery by trypan blue exclusion and flow cytometry (FIG. 2); assay type: cell-based, human; settings: FIG. 2 legend; model not specified
Procedure: FIG. 2. Total immune cell recovery calculated by trypan blue exclusion and total DCs per treatment were calculated by applying the percentage marker expression from flow cytometry data. […] CD86 and CCR7 expression in the vaginal model also confirm the antigen uptake/presentation responsiveness of the vaginal model.
The quality of immune APCs was determined by quantifying dendritic cell marker expression (HLA-DR, CD14, CD86, CCR7) from the reverse-transmigrated cell fraction of the MIMIC® co-cultures.

[5] = N-9 and E. coli bioparticles delivered together
[6] = single treatment, N-9 20 μg/mL, E. coli bioparticles 1×10^6/mL, overnight co-culture

nonoxynol-9 [N-9]
live dendritic cell recovery [1, 5]: overall reduction in live dendritic cell recovery | live dendritic cell recovery [1, 6]: overall reduction in live dendritic cell recovery | cytokine levels versus no treatment microcarrier plus PTE control [2]: above the no treatment microcarrier plus PTE control | effect on vaginal epithelial cells in vitro (vaginal epithelial cells): increased inflammation, cell death, and damaged tissue mucosa | live dendritic cell recovery [3, 5]: overall reduction in live dendritic cell recovery | live dendritic cell recovery [3, 6]: overall reduction in live dendritic cell recovery | total DC viability [4]: reduced
